Like-named read-outs stand apart in the source and are kept apart here.
Experiments:
Type in all cases: cell-based
HT-29 = test: Cell viability (CellTiter-Glo) cytotoxicity assay, INBRX-109 x onvansertib matrix, 48 h; conditions: for Max Cytotox at 200 nM: HT-29; for EC50: Homo sapiens, HT-29, HT-29
Procedure: (§1) Monolayer cultures of each cell line were harvested for compound screening as detailed below.
(§2) Onvansertib: A 10 mg stock of onvansertib was purchased from Selleck Chemicals and was resuspended to 10 mM in DMSO. This was then aliquoted and stored at −80° C. Aliquots were thawed immediately prior to dilution and use in the assay. A 500× master plate of serial dilutions (6-point 5-fold dilutions in 100% DMSO starting at 500 μM, plus a DMSO only control) was prepared and mixed gently with a pipette. To generate a 5× working dilution plate of onvansertib, a 1:100 dilution was performed from the 500× plate into complete media (EMEM).
(§3) Also on day 2, test and control articles were added.
(§4) On day 4, viability measurements were taken. […] Data was graphed in GraphPad Prism 9.

LS174T [1] = test: as above; conditions: for EC50: Homo sapiens
Procedure: as §1, §2, §3, §4

LS411N = test: as above; conditions: for EC50: Homo sapiens, LS-411N
Procedure: as §1, §2, §3, §4

SW1463 = test: as above; conditions: for EC50: Homo sapiens, SW1463, SW1463; for Max Cytotox at 200 nM: SW1463
Procedure: as §1, §2, §3, §4

SW620 = test: as above; conditions: for EC50: Homo sapiens, SW-620, SW620; for Max Cytotox at 200 nM: SW620
Procedure: as §1, §2, §3, §4

SW837 = test: as above; conditions: for EC50: Homo sapiens, SW837, SW837; for Max Cytotox at 200 nM: SW837
Procedure: as §1, §2, §3, §4

HT-55 = test: Cytotoxicity assay, colorectal cancer cell line panel, onvansertib +/- 1 nM INBRX-109; conditions: for Max Cytotox at 600 nM: HT-55; for EC50: Homo sapiens, HT55, HT-55
Procedure: as §1, §3, §4
(§5) The results for a panel of colorectal cancer cell lines are shown in Table 3 and FIGS. 4-6, and the results for a panel of pancreatic cell lines are shown in Table 4 and FIGS. 7 and 8.

LS174T [2] = test: as above; conditions: for EC50: Homo sapiens
Procedure: as §1, §3, §4, §5

SW-48 = test: as above; conditions: for EC50: Homo sapiens, SW48, SW-48; for Max Cytotox at 600 nM: SW-48
Procedure: as §1, §3, §4, §5

AsPC-1 = test: Cytotoxicity assay, pancreatic cell line panel, onvansertib +/- 1 nM INBRX-109; conditions: for Max Cytotox at 600 nM: AsPC-1; for EC50: Homo sapiens, ASPC1, AsPC-1
Procedure: as §1, §3, §4, §5

BxPC-3 = test: as above; conditions: for Max Cytotox at 600 nM: BxPC-3; for EC50: Homo sapiens, BXPC-3, BxPC-3
Procedure: as §1, §3, §4, §5

CFPAC-1 = test: as above; conditions: for Max Cytotox at 600 nM: CFPAC-1; for EC50: Homo sapiens, CFPAC-1, CFPAC-1
Procedure: as §1, §3, §4, §5

Capan-1 = test: as above; conditions: for Max Cytotox at 600 nM: Capan-1; for EC50: Homo sapiens, CAPAN-1, Capan-1
Procedure: as §1, §3, §4, §5

**Q.** CN1CCN(c2ccc(OC(F)(F)F)c(Nc3ncc4c(n3)-c3c(c(C(N)=O)nn3CCO)CC4)c2)CC1 [Onvansertib] was tested. Which “Max Cytotox at 200 nM” value (HT-29; onvansertib + 1 nM INBRX-109) did it give?
**A.** The value was 94.63%.

**Q.** And the “Max Cytotox at 200 nM” value (HT-29; onvansertib only)?
**A.** Its value is 5.54%.

**Q.** What about the EC50 (HT-29; onvansertib + 1 nM INBRX-109) of the same compound?
**A.** The EC50 was 21.4 nM.

**Q.** What about the EC50 (HT-29; onvansertib only) of the same compound?
**A.** Its EC50 is roughly 2.3 nM.

**Q.** What about the EC50 (LS174T [1]; onvansertib + 1 nM INBRX-109) of the same compound?
**A.** Its EC50 is roughly 54.7 nM.

**Q.** And the EC50 (LS174T [1]; onvansertib only)?
**A.** Its EC50 is roughly 197 nM.

**Q.** And the “Max Cytotox at 200 nM” value (LS174T [1]; onvansertib + 1 nM INBRX-109)?
**A.** Its value is 79.32%.

**Q.** What about the “Max Cytotox at 200 nM” value (LS174T [1]; onvansertib only) of the same compound?
**A.** Its value is 16.93%.

**Q.** What about the EC50 (LS411N; onvansertib + 1 nM INBRX-109, read-out: EC50) of the same compound?
**A.** The EC50 was roughly 1.03e-05 mM.

**Q.** What about the EC50 (LS411N; onvansertib only, read-out: EC50) of the same compound?
**A.** The EC50 was roughly 4.15 mM.

**Q.** What about the “Max Cytotox at 200 nM” value (LS411N; onvansertib + 1 nM INBRX-109) of the same compound?
**A.** The value was 84.45%.

**Q.** What about the “Max Cytotox at 200 nM” value (LS411N; onvansertib only) of the same compound?
**A.** Its value is 12.35%.

**Q.** What about the EC50 (SW1463; onvansertib + 1 nM INBRX-109) of the same compound?
**A.** The EC50 was roughly 38.2 nM.

**Q.** And the EC50 (SW1463; onvansertib only)?
**A.** The EC50 was 124 nM.

**Q.** What about the “Max Cytotox at 200 nM” value (SW1463; onvansertib + 1 nM INBRX-109) of the same compound?
**A.** Its value is 74.39%.

**Q.** And the “Max Cytotox at 200 nM” value (SW1463; onvansertib only)?
**A.** The value was 25.79%.

**Q.** What about the EC50 (SW620; onvansertib + 1 nM INBRX-109) of the same compound?
**A.** The EC50 was 30.4 nM.

**Q.** And the EC50 (SW620; onvansertib only)?
**A.** Its EC50 is 31.3 nM.

**Q.** What about the “Max Cytotox at 200 nM” value (SW620; onvansertib + 1 nM INBRX-109) of the same compound?
**A.** The value was 87.53%.

**Q.** What about the “Max Cytotox at 200 nM” value (SW620; onvansertib only) of the same compound?
**A.** Its value is 51.37%.

**Q.** What about the EC50 (SW837; onvansertib + 1 nM INBRX-109) of the same compound?
**A.** Its EC50 is roughly 0.0432 µM.

**Q.** What about the EC50 (SW837; onvansertib only) of the same compound?
**A.** Its EC50 is 27.2 µM.

**Q.** And the “Max Cytotox at 200 nM” value (SW837; onvansertib + 1 nM INBRX-109)?
**A.** The value was 80.64%.

**Q.** What about the “Max Cytotox at 200 nM” value (SW837; onvansertib only) of the same compound?
**A.** The value was 27.17%.

**Q.** What about the “Max Cytotox at 600 nM” value (HT-55; onvansertib + 1 nM INBRX-109) of the same compound?
**A.** The value was 87.9%.

**Q.** What about the “Max Cytotox at 600 nM” value (HT-55; onvansertib only) of the same compound?
**A.** The value was 41.8%.

**Q.** And the EC50 (HT-55; onvansertib + 1 nM INBRX-109)?
**A.** Its EC50 is 44.1 nM.

**Q.** And the EC50 (HT-55; onvansertib only)?
**A.** Its EC50 is 51.4 nM.

**Q.** And the EC50 (LS174T [2]; onvansertib + 1 nM INBRX-109)?
**A.** Its EC50 is 109 nM.

**Q.** And the EC50 (LS174T [2]; onvansertib only)?
**A.** Its EC50 is 252 nM.

**Q.** And the “Max Cytotox at 600 nM” value (LS174T [2]; onvansertib + 1 nM INBRX-109)?
**A.** Its value is 94.1%.

**Q.** What about the “Max Cytotox at 600 nM” value (LS174T [2]; onvansertib only) of the same compound?
**A.** The value was 59.5%.

**Q.** And the EC50 (SW-48; onvansertib + 1 nM INBRX-109)?
**A.** Its EC50 is 28.3 nM.

**Q.** What about the EC50 (SW-48; onvansertib only) of the same compound?
**A.** The EC50 was 37.3 nM.

**Q.** And the “Max Cytotox at 600 nM” value (SW-48; onvansertib + 1 nM INBRX-109)?
**A.** Its value is 99.4%.

**Q.** What about the “Max Cytotox at 600 nM” value (SW-48; onvansertib only) of the same compound?
**A.** Its value is 76.6%.

**Q.** And the “Max Cytotox at 600 nM” value (AsPC-1; onvansertib + 1 nM INBRX-109)?
**A.** The value was 60.0%.

**Q.** What about the “Max Cytotox at 600 nM” value (AsPC-1; onvansertib only) of the same compound?
**A.** Its value is 19.9%.

**Q.** What about the EC50 (AsPC-1; onvansertib + 1 nM INBRX-109) of the same compound?
**A.** Its EC50 is 230 nM.

**Q.** And the EC50 (AsPC-1; onvansertib only)?
**A.** The EC50 was 444 nM.

**Q.** What about the “Max Cytotox at 600 nM” value (BxPC-3; onvansertib + 1 nM INBRX-109) of the same compound?
**A.** The value was 91.8%.

**Q.** And the “Max Cytotox at 600 nM” value (BxPC-3; onvansertib only)?
**A.** Its value is 70.1%.

**Q.** What about the EC50 (BxPC-3; onvansertib + 1 nM INBRX-109) of the same compound?
**A.** The EC50 was 119 nM.

**Q.** And the EC50 (BxPC-3; onvansertib only)?
**A.** The EC50 was 139 nM.

**Q.** And the “Max Cytotox at 600 nM” value (CFPAC-1; onvansertib + 1 nM INBRX-109)?
**A.** The value was 86.4%.

**Q.** And the “Max Cytotox at 600 nM” value (CFPAC-1; onvansertib only)?
**A.** The value was 45.3%.

**Q.** And the EC50 (CFPAC-1; onvansertib + 1 nM INBRX-109)?
**A.** Its EC50 is 154 nM.

**Q.** And the EC50 (CFPAC-1; onvansertib only)?
**A.** The EC50 was 134 nM.

**Q.** And the “Max Cytotox at 600 nM” value (Capan-1; onvansertib + 1 nM INBRX-109)?
**A.** Its value is 94.3%.

**Q.** And the “Max Cytotox at 600 nM” value (Capan-1; onvansertib only)?
**A.** The value was 27.8%.

**Q.** And the EC50 (Capan-1; onvansertib + 1 nM INBRX-109)?
**A.** The EC50 was 79 nM.

**Q.** What about the EC50 (Capan-1; onvansertib only) of the same compound?
**A.** The EC50 was 186 nM.
